# Data reported in patent US11840686B2, “Modulation of prekallikrein (PKK) expression” (Ionis Pharmaceuticals, Inc., priority 2013, dated 2023).
# Strand notation (5' to 3'): a small letter for the sugar, then the base; units joined by * are phosphorothioate-linked, units joined directly phosphodiester-linked; [ ] holds rarer units or linkages, { } end groups; capitals alone tell only the bases. e = 2'-O-(2-methoxyethyl) (MOE); [5mC] = 5-methylcytosine; d = 2'-deoxy (DNA)
# System: human PKK mRNA
# Assay: Antisense inhibition of human PKK mRNA in HepaRG cells, 5,000 nM (Example 2)
# Format: cell-based
# Method in brief: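 Percent inhibition of PKK mRNA is relative to untreated control, with qRT-PCR (probe set RTS3454) values adjusted to total RNA by RIBOGREEN. Oligonucleotides, fully phosphorothioate 2′-MOE gapmers, were delivered at 5,000 nM by electroporation into 20,000 HepaRG cells/well for about 24 h.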
# [1] = HepaRG cells, 5,000 nM antisense oligonucleotide, 5-10-5 gapmers, Table 16
# [2] = HepaRG cells, 5,000 nM antisense oligonucleotide, 5-10-5 gapmers, Table 17
# [3] = Table 13, human PKK mRNA in HepaRG cells, 5-10-5 gapmers
# [4] = human PKK mRNA in HepaRG cells, 5-10-5 gapmers, Table 14
# [5] = Table 9 experiment, HepaRG cells, 20,000 cells per well, electroporation with 5,000 nM antisense oligonucleotide, approx. 24 hours, PKK mRNA by RT-PCR (RTS3454), relative to untreated control cells
# [6] = Table 10 experiment, HepaRG cells, 20,000 cells per well, electroporation with 5,000 nM antisense oligonucleotide, approx. 24 hours, PKK mRNA by RT-PCR (RTS3454), relative to untreated control cells
# [7] = human PKK mRNA, HepaRG cells, 5,000 nM antisense oligonucleotide, Table 18
# [8] = HepaRG cells, electroporation with 5,000 nM antisense oligonucleotide, approximately 24 hours, PKK mRNA by RT-PCR (RTS3454), relative to untreated control cells, Table 6 experiment
# [9] = HepaRG cells, electroporation with 5,000 nM antisense oligonucleotide, approximately 24 hours, PKK mRNA by RT-PCR (RTS3454), relative to untreated control cells, Table 5 experiment
# [10] = Table 8, HepaRG cells, electroporation with 5,000 nM antisense oligonucleotide, approx. 24 hours, PKK mRNA by RT-PCR (RTS3454), relative to untreated control cells
# [11] = HepaRG cells, 5,000 nM antisense oligonucleotide, human PKK mRNA, Table 18
# [12] = HepaRG cells, electroporation, 5,000 nM antisense oligonucleotide, approx. 24 hours, primer probe set RTS3454, relative to untreated control cells, Table 11
# [13] = HepaRG cells, electroporation, 5,000 nM antisense oligonucleotide, approx. 24 hours, primer probe set RTS3454, relative to untreated control cells, Table 12
substance,measurement,setting,value
547680 (antisense eT*eA*eT*e[5mC]*eA*d[5mC]*dT*dG*dT*dA*d[5mC]*d[5mC]*dT*dA*dT*eA*eT*e[5mC]*eA*e[5mC]) [compound 547680],% inhibition,[1],41%
547035 (eT*eG*eG*eT*e[5mC]*d[5mC]*d[5mC]*dA*dA*dA*dT*dT*dG*dG*dA*eG*eT*eG*e[5mC]*eA; antisense) [compound 547035],% inhibition,[2],40%
547581 (eA*eT*eA*eT*e[5mC]*dA*d[5mC]*dT*dG*dT*d[5mC]*d[5mC]*dT*dA*dT*eA*eA*e[5mC]*eT*e[5mC]; antisense) [compound 547581],% inhibition,[3],60%
546869 (eT*eG*eT*eA*e[5mC]*d[5mC]*dT*dA*dT*dA*dA*d[5mC]*dT*d[5mC]*dT*eA*eA*e[5mC]*eA*eG; antisense) [compound 546869],% inhibition,[4],53%
546350 (antisense e[5mC]*e[5mC]*e[5mC]*eT*eG*d[5mC]*dG*dG*dG*d[5mC]*dA*d[5mC]*dA*dG*d[5mC]*e[5mC]*eT*eT*e[5mC]*eA) [compound 546350],% inhibition,[5],88%
same,% inhibition,[6],74%
548771 (antisense eA*eT*eA*eA*d[5mC]*dA*dG*dT*dA*dT*d[5mC]*dA*d[5mC]*eT*eG*eT*e[5mC]) [compound 548771],% inhibition,[7],62%
547566 (eA*eA*eG*eA*eG*dT*dT*dG*dG*dG*dA*dT*dG*d[5mC]*dG*eA*e[5mC]*eT*e[5mC]*eT; antisense) [compound 547566],% inhibition,[3],76%
546746 (eT*e[5mC]*e[5mC]*eT*eG*dT*dT*dG*d[5mC]*d[5mC]*dT*dG*dA*d[5mC]*dA*eT*eG*e[5mC]*eT*eA; antisense) [compound 546746],% inhibition,[3],65%
547357 (e[5mC]*eT*eT*eT*eA*dA*dT*dA*dG*dG*d[5mC]*dA*dA*dT*dT*eG*eT*eT*e[5mC]*e[5mC]; antisense) [compound 547357],% inhibition,[8],78%
546144 (e[5mC]*eA*e[5mC]*eA*eG*dG*dA*dA*dA*d[5mC]*dT*dG*dT*dA*dG*e[5mC]*eA*eA*eA*e[5mC]; antisense) [compound 546144],% inhibition,[9],75%
547459 (antisense eG*eA*eG*eT*eT*dT*dT*dA*dT*d[5mC]*dA*dA*dG*dG*d[5mC]*eG*eA*eT*eA*eT) [compound 547459],% inhibition,[5],28%
same,% inhibition,[6],51%
547482 (antisense e[5mC]*e[5mC]*e[5mC]*e[5mC]*eT*dT*d[5mC]*dT*dT*dT*dA*dT*dA*dG*d[5mC]*e[5mC]*eA*eG*e[5mC]*eA) [compound 547482],% inhibition,[5],90%
same,% inhibition,[6],65%
547460 (antisense e[5mC]*eT*eG*eG*eA*dG*dT*dT*dT*dT*dA*dT*d[5mC]*dA*dA*eG*eG*e[5mC]*eG*eA) [compound 547460],% inhibition,[5],72%
same,% inhibition,[6],75%
547570 (eA*eA*eG*e[5mC]*e[5mC]*d[5mC]*dT*dG*dT*dT*dT*dG*dG*dT*dT*eT*eT*eT*eA*eG; antisense) [compound 547570],% inhibition,[3],18%
547011 (eG*eG*e[5mC]*eA*eG*dG*dA*dT*dT*dG*dG*dT*dG*dG*dT*eG*eG*eA*eA*eT; antisense) [compound 547011],% inhibition,[2],22%
547699 (antisense eT*eA*e[5mC]*e[5mC]*eT*dA*dT*dA*dA*d[5mC]*dT*dA*dT*dA*dA*e[5mC]*eA*eA*eT*eA) [compound 547699],% inhibition,[1],10%
547578 (eG*eT*e[5mC]*e[5mC]*eT*dA*dT*dA*dA*d[5mC]*dT*d[5mC]*dT*dA*dA*e[5mC]*eA*eG*eT*eA; antisense) [compound 547578],% inhibition,[3],30%
547607 (antisense eT*eA*eA*e[5mC]*eA*dA*dT*dA*dT*d[5mC]*dA*d[5mC]*dT*dG*dT*eA*e[5mC]*e[5mC]*eT*eA) [compound 547607],% inhibition,[4],49%
546321 (antisense eG*eA*eA*eG*eG*dT*dA*dG*dG*d[5mC]*dA*dT*dA*dT*dT*eG*eG*eT*eT*eT) [compound 546321],% inhibition,[5],53%
same,% inhibition,[6],56%
546288 (antisense eG*eT*eT*eT*eG*dT*dT*d[5mC]*d[5mC]*dT*d[5mC]*d[5mC]*dA*dA*d[5mC]*eA*eA*eT*eG*e[5mC]) [compound 546288],% inhibition,[10],78%
547369 (eA*eA*eG*e[5mC]*eA*dT*d[5mC]*dT*dG*dG*dA*dG*dT*dG*dA*eG*eA*eA*e[5mC]*e[5mC]; antisense) [compound 547369],% inhibition,"Table 7, HepaRG cells, electroporation with 5,000 nM antisense oligonucleotide, approx. 24 hours, PKK mRNA by RT-PCR (RTS3454), relative to untreated control cells",76%
546859 (eT*eT*eT*e[5mC]*e[5mC]*dT*dA*dT*dA*dA*d[5mC]*dT*dA*dT*dA*eA*e[5mC]*eA*eG*eT; antisense) [compound 546859],% inhibition,[4],7%
548717 (DNA eA*e[5mC]*eT*dA*dG*dT*dT*dT*d[5mC]*d[5mC]*dT*dA*dT*eA*eA*e[5mC]*eT; antisense) [compound 548717],% inhibition,[11],0%
547503 (antisense eA*e[5mC]*eT*e[5mC]*eA*dG*dG*dT*dT*dG*dT*dA*dA*dA*dA*eA*eT*eT*eG*e[5mC]) [compound 547503],% inhibition,[12],66%
546154 (eT*eG*eG*e[5mC]*eA*dG*dT*dA*dT*dT*dG*dG*dG*d[5mC]*dA*eT*eT*eT*eG*eG; antisense) [compound 546154],% inhibition,[9],85%
548782 (antisense eT*eA*e[5mC]*e[5mC]*dT*dA*dT*dA*dA*d[5mC]*dT*dA*dT*eA*eA*e[5mC]*eA) [compound 548782],% inhibition,[7],0%
547562 (e[5mC]*eT*eT*eT*e[5mC]*dT*dT*dG*dA*dG*dA*d[5mC]*dA*dA*dT*e[5mC]*e[5mC]*e[5mC]*eT*eT; antisense) [compound 547562],% inhibition,[3],59%
546147 (eT*e[5mC]*eA*eT*eA*dG*dA*dG*dT*dT*dG*dA*dG*dT*d[5mC]*eA*eG*eA*e[5mC]*eA; antisense) [compound 546147],% inhibition,[9],76%
547346 (antisense eA*e[5mC]*e[5mC]*eT*eT*dA*dG*dA*d[5mC]*dA*d[5mC]*dA*dT*dT*dA*eA*eA*eA*eT*eT) [compound 547346],% inhibition,[8],57%
547693 (antisense eT*e[5mC]*eA*e[5mC]*eT*dG*dT*dA*d[5mC]*d[5mC]*dT*dA*dT*dA*dA*e[5mC]*eT*eG*eT*eA) [compound 547693],% inhibition,[1],61%
546256 (eT*e[5mC]*eA*eT*e[5mC]*dT*dT*dT*dG*dT*dG*d[5mC]*dA*dA*dG*eT*e[5mC]*eT*e[5mC]*eT; antisense) [compound 546256],% inhibition,[10],83%
546461 (eA*eT*eG*eT*eT*dT*dA*dT*dT*dG*dT*dA*dG*d[5mC]*d[5mC]*eA*eT*eA*e[5mC]*eA; antisense) [compound 546461],% inhibition,[13],53%
547468 (antisense eG*eT*eT*eG*eG*dT*dA*dT*dA*dA*dA*dT*dT*dG*dT*eG*e[5mC]*eT*eT*eG) [compound 547468],% inhibition,[5],61%
same,% inhibition,[6],46%
547698 (antisense eA*e[5mC]*e[5mC]*eT*eA*dT*dA*dA*d[5mC]*dT*dA*dT*dA*dA*d[5mC]*eA*eA*eT*eA*eT) [compound 547698],% inhibition,[1],0%
546384 (antisense e[5mC]*eG*eT*e[5mC]*e[5mC]*dT*dT*dA*dG*dG*dA*dT*dG*d[5mC]*dA*eA*eA*eG*eA*eA) [compound 546384],% inhibition,[12],81%
548710 (DNA eT*eG*eT*dA*d[5mC]*dT*dA*dG*dT*dT*dT*d[5mC]*d[5mC]*eT*eA*eT; antisense) [compound 548710],% inhibition,[11],0%
547643 (eA*eT*e[5mC]*eA*e[5mC]*dT*dG*dT*d[5mC]*d[5mC]*dT*dA*dT*dA*dA*e[5mC]*eT*eA*eT*eA; antisense) [compound 547643],% inhibition,"human PKK mRNA, HepaRG cells, 5-10-5 motif oligonucleotides targeting SEQ ID NO: 1 and 10",72%
546353 (antisense e[5mC]*eT*e[5mC]*eA*eG*d[5mC]*dG*dA*d[5mC]*dT*dT*dT*dG*dG*dT*eG*eT*eA*eG*eA) [compound 546353],% inhibition,[12],55%
547690 (antisense e[5mC]*eT*eG*eT*eA*dA*d[5mC]*dA*dA*dT*dA*dT*d[5mC]*dA*d[5mC]*eT*eG*eT*e[5mC]*e[5mC]) [compound 547690],% inhibition,[1],76%
547557 (e[5mC]*eT*eG*eT*eG*d[5mC]*dT*dG*dT*dA*dT*dT*dT*dT*dG*eG*eA*eG*e[5mC]*e[5mC]; antisense) [compound 547557],% inhibition,[13],59%
547758 (antisense e[5mC]*e[5mC]*eA*eA*eG*dT*dA*dG*dT*dG*d[5mC]*dA*dA*dG*dG*e[5mC]*eA*eT*eG*eT) [compound 547758],% inhibition,[2],24%
547546 (antisense e[5mC]*eA*eT*eA*e[5mC]*dT*d[5mC]*dG*d[5mC]*d[5mC]*dT*dT*dT*dG*dT*eG*eA*eT*eG*e[5mC]) [compound 547546],% inhibition,[13],11%
